The source of these data is patent US6464978B1, “Vaccination and methods against multiple sclerosis resulting from pathogenic responses by specific T cell populations” (The Immune Response Corporation, priority 1989, dated 2002).

“And” between values parts separate entries of the source, which are not always exact repeats. Equal entries are not always repeated. “Also recorded” adds a separate entry of the source.

Test [1] concerns EAE. Briefly: Vaccination against EAE in the Lewis rat model, daily clinical scoring after MBP challenge. Details: key to EAE clinical score, Days After Challenge 18 / EAE clinical score, Days After Challenge 10 / EAE clinical score, Days After Challenge 11 / EAE clinical score, Days After Challenge 12 / EAE clinical score, Days After Challenge 13 / EAE clinical score, Days After Challenge 14 / EAE clinical score, Days After Challenge 15 / EAE clinical score, Days After Challenge 16 / EAE clinical score, Days After Challenge 17 / EAE clinical score, Days After Challenge 19 / EAE clinical score, Days After Challenge 20: —: no signs; 1: limp tail; 2: hind leg weakness; 3: hind leg paralysis. Type of test: in vivo, Lewis rats. Conditions: for EAE clinical score, Days After Challenge 10: day 10; for EAE clinical score, Days After Challenge 11: day 11; for EAE clinical score, Days After Challenge 12: day 12; for EAE clinical score, Days After Challenge 13: day 13; for EAE clinical score, Days After Challenge 14: day 14; for EAE clinical score, Days After Challenge 15: day 15; for EAE clinical score, Days After Challenge 16: day 16; for EAE clinical score, Days After Challenge 17: day 17; for EAE clinical score, Days After Challenge 18: day 18. As to the method: Female Lewis rats, (Charles River Laboratories, Raleigh-Durham, N.C.) were immunized in each hind foot pad with 50 μg of guinea pig myelin basic protein emulsified in complete Freund's adjuvant. The first signs of disease were typically observed 9-11 days post-immunization. Disease severity is scored on a three point scale as follows: 1=limp tail; 2=hind leg weakness; 3=hind leg paralysis. Following a disease course of approximately four to six days, most rats spontaneously recovered and were refractory to subsequent EAE induction.
[…]. KLH-VDJ conjugate was administered at a dose equivalent to 10 μg of KLH per rat. Twenty-nine days later each rat was challenged with 50 μg of guinea pig myelin basic protein in complete Freund's adjuvant in the front footpads. Animals were monitored daily beginning at day 9 for clinical, signs of EAE and were scored as described above.
The preparation, administration and evaluation of these vaccines were conducted as described in Examples I through III with the following exceptions: 50 μg of the individual VDJ peptides were incorporated into vaccine formulations containing CFA; neither vaccinations in IFA nor vaccinations with peptides conjugated to KLH were conducted. Control animals were untreated prior to MBP challenge as in Example III or were vaccinated with emulsions of PBS and CFA to assess the protective effect of adjuvant alone. […]

Test [2] relates to EAE. Briefly: Histologic examination of the CNS of vaccinated, MBP-challenged rats. Type of test: in vivo. The conditions noted are these: Lewis rats, 50 μg peptide in CFA, MBP challenge. From the text:
Disease was characterized by severe paralysis and wasting, persisted for 4 to 6 days and spontaneously remitted.
Even sub-clinical signs of disease were abrogated.

The mark [3] stands for this setting: one rat per line, 5 μg VDJ or KLH-VDJ equivalent to 10 μg KLH, in IFA or CFA, hind footpads, MBP challenge 29 days later.
[4] abbreviates: Lewis rats, 50 μg peptide in CFA, MBP challenge.
[5] abbreviates: one rat per line, 50 μg rat VDJ peptide in CFA.
[6] abbreviates: one rat per line, 50 μg Vβ8 peptide in CFA.
The mark [7] stands for this setting: one rat per line, 50 μg JαTA39 peptide in CFA.

In the case of “SGDAGGGYE [VDJ (CFA), free VDJ peptide in PBS emulsified with complete Freund's adjuvant]”, in the test on EAE [1] (setting [3]), the “EAE clinical score, Days After Challenge 10” value was “—”; the “EAE clinical score, Days After Challenge 11” value is reported as “—”; the “EAE clinical score, Days After Challenge 12” value was “—”; the “EAE clinical score, Days After Challenge 13” value was 1 and — (2×). In the test on EAE [1] (setting [3]), the “EAE clinical score, Days After Challenge 14” value was 3 and 1 and —; the “EAE clinical score, Days After Challenge 15” value is 3 and 1 and —; the “EAE clinical score, Days After Challenge 16” value is 3 and 1 and —; the “EAE clinical score, Days After Challenge 17” value is 2 and — (2×). In the test with EAE [1] (setting [3]), the “EAE clinical score, Days After Challenge 18” value was “—”.
In the case of A S S D - S S N T E (ASSDSSNTE) [IR9b], the “protection against clinical EAE (animals protected)” value (shortened to “protection against clinical EAE”) in the test on EAE [1] (setting [4]) was “complete protection in all four animals”. Further, in the test on EAE [1] (setting [5]), the “EAE clinical score, Days After Challenge 10” value is “—”; the “EAE clinical score, Days After Challenge 11” value is reported as “—”; the “EAE clinical score, Days After Challenge 12” value is given as “—”; the “EAE clinical score, Days After Challenge 13” value is given as “—”. In the test with EAE [1] (setting [5]), the “EAE clinical score, Days After Challenge 14” value is given as “—”; the “EAE clinical score, Days After Challenge 15” value is listed as “—”; the “EAE clinical score, Days After Challenge 16” value is “—”; the “EAE clinical score, Days After Challenge 17” value is “—”. For the same sequence, the “EAE clinical score, Days After Challenge 18” value with EAE [1] (setting [5]) is “—”. In the test on EAE [2], the “histologic lesions / T cell infiltration of the CNS” value is given as “no histologic lesions characteristic of disease were found in any of the four animals”.
Regarding “SGDAGGGYE [VDJ (IFA), free VDJ peptide in PBS emulsified with incomplete Freund's adjuvant]”, in the test on EAE [1] (setting [3]), the “EAE clinical score, Days After Challenge 10” value is reported as “—”; the “EAE clinical score, Days After Challenge 11” value is listed as “—”; the “EAE clinical score, Days After Challenge 12” value is 2 and 1 and —; the “EAE clinical score, Days After Challenge 13” value came to 3. Besides, in the test with EAE [1] (setting [3]), the “EAE clinical score, Days After Challenge 14” value was 3; the “EAE clinical score, Days After Challenge 15” value is 3; the “EAE clinical score, Days After Challenge 16” value is “— and 2 (2×)”; the “EAE clinical score, Days After Challenge 17” value was “—”. Further, the “EAE clinical score, Days After Challenge 18” value in the test on EAE [1] (setting [3]) is “—”.
“C A S S D - S G N - V L Y F G E G S R (CASSDSGNVLYFGEGSR) [IR3]”: the “onset, severity and duration of EAE” value in the test on EAE [1] (setting [4]) is recorded as “delays in onset were observed in some; also recorded: others showed both delayed onset as well as decreased severity and/or duration of disease”. Further, in the test with EAE [1] (setting [5]), the “EAE clinical score, Days After Challenge 10” value was 1 and — (2×); the “EAE clinical score, Days After Challenge 11” value is 3 and — (2×); the “EAE clinical score, Days After Challenge 12” value is 3 and 2 and —; the “EAE clinical score, Days After Challenge 13” value was 3 (2×) and —. In the test with EAE [1] (setting [5]), the “EAE clinical score, Days After Challenge 14” value was 2 and 3 and —; the “EAE clinical score, Days After Challenge 15” value was “—”; the “EAE clinical score, Days After Challenge 16” value is “—”; the “EAE clinical score, Days After Challenge 17” value is “—”. The “EAE clinical score, Days After Challenge 18” value with EAE [1] (setting [5]) is recorded as “—”.
Regarding “C A S S D - S G N T E V F F G K (CASSDSGNTEVFFGK) [IR2]”, the “onset, severity and duration of EAE” value in the test with EAE [1] (setting [4]) is “delays in onset were observed in some; also recorded: others showed both delayed onset as well as decreased severity and/or duration of disease”. Further, in the test on EAE [1] (setting [5]), the “EAE clinical score, Days After Challenge 10” value is “—”; the “EAE clinical score, Days After Challenge 11” value is “—”; the “EAE clinical score, Days After Challenge 12” value is 1 and — (2×); the “EAE clinical score, Days After Challenge 13” value is 3 and — (2×). Moreover, in the test with EAE [1] (setting [5]), the “EAE clinical score, Days After Challenge 14” value is 3 and 2 and 1; the “EAE clinical score, Days After Challenge 15” value is 3 and 2 and —; the “EAE clinical score, Days After Challenge 16” value is “— (2×) and 3”; the “EAE clinical score, Days After Challenge 17” value is “— (2×) and 3”. Also, the “EAE clinical score, Days After Challenge 18” value in the test with EAE [1] (setting [5]) is “—”.
Turning to “C A S S D - S S N T E V F F G K (CASSDSSNTEVFFGK) [IR1]”, in the test with EAE [1] (setting [4]), the “onset, severity and duration of EAE” value is given as “delays in onset were observed in some; also recorded: others showed both delayed onset as well as decreased severity and/or duration of disease”. Further, in the test with EAE [1] (setting [5]), the “EAE clinical score, Days After Challenge 10” value was “—”; the “EAE clinical score, Days After Challenge 11” value is “—”; the “EAE clinical score, Days After Challenge 12” value is listed as “—”; the “EAE clinical score, Days After Challenge 13” value was 2 and — and 1. In addition, in the test on EAE [1] (setting [5]), the “EAE clinical score, Days After Challenge 14” value was 1; the “EAE clinical score, Days After Challenge 15” value is “— and 3 and 1”; the “EAE clinical score, Days After Challenge 16” value was “— (2×) and 1”; the “EAE clinical score, Days After Challenge 17” value is “—”. The “EAE clinical score, Days After Challenge 18” value in the test with EAE [1] (setting [5]) is “—”.
For the sequence DMGHGLRLIHYSYDVNSTEK [IR7], in the test with EAE [1] (setting [4]), the “onset, severity and duration of EAE” value was “Delayed onset as well as decreased severity and duration of disease was observed in one animal”; the “protection against clinical EAE” value was “One animal was completely protected”. Also, in the test with EAE [1] (setting [6]), the “EAE clinical score, Days After Challenge 10” value is “—”; the “EAE clinical score, Days After Challenge 11” value is reported as “—”; the “EAE clinical score, Days After Challenge 12” value was 1 and — (2×); the “EAE clinical score, Days After Challenge 13” value is 2 and — (2×). In the test on EAE [1] (setting [6]), the “EAE clinical score, Days After Challenge 14” value was 3 and 1 and —; the “EAE clinical score, Days After Challenge 15” value is 3 and 1 and —; the “EAE clinical score, Days After Challenge 16” value is 3 and — (2×); the “EAE clinical score, Days After Challenge 17” value is on record as “—”. Besides, the “EAE clinical score, Days After Challenge 18” value in the test with EAE [1] (setting [6]) is listed as “—”.
With RFGAGTRLTVK [IR5], in the test on EAE [1] (setting [4]), the “effectiveness of vaccination compared with other peptides” value is recorded as “more effective than those observed with the mouse VDJ peptide or the Vβ8 peptide”; the “onset, severity and duration of EAE” value is “in the third, disease onset was markedly delayed”; the “protection against clinical EAE” value is listed as “Two of three animals were totally protected”. For the same sequence, in the test with EAE [1] (setting [7]), the “EAE clinical score, Days After Challenge 10” value is reported as “—”; the “EAE clinical score, Days After Challenge 11” value is reported as “—”; the “EAE clinical score, Days After Challenge 12” value is “—”; the “EAE clinical score, Days After Challenge 13” value is “—”. In the test with EAE [1] (setting [7]), the “EAE clinical score, Days After Challenge 14” value is reported as “—”; the “EAE clinical score, Days After Challenge 15” value was 2 and — (2×); the “EAE clinical score, Days After Challenge 16” value is 1 and — (2×); the “EAE clinical score, Days After Challenge 17” value was 1 and — (2×). The “EAE clinical score, Days After Challenge 18” value in the test on EAE [1] (setting [7]) is 1 and — (2×). In addition, the “EAE clinical score, Days After Challenge 19” value in the test with EAE [1] (day 19, one rat per line, 50 μg JαTA39 peptide in CFA) is 1 and — (2×). In addition, in the test with EAE [1] (day 20, one rat per line, 50 μg JαTA39 peptide in CFA), the “EAE clinical score, Days After Challenge 20” value is “—”. For the same sequence, the “histologic lesions / T cell infiltration of the CNS” value in the test with EAE [2] was “the two animals which were completely protected showed no histologic evidence of T cell infiltration of the CNS”.
